# According to US20260356819A1, “OXOISOINDOLINYL-SUBSTITUTED […] DERIVATIVE AND USE THEREOF” (GLUETACS THERAPEUTICS (SHANGHAI) CO., LTD., priority 2023, published 2026):
# Columns and labels:
# Type in all cases: cell-based
# Details in all cases: compounds at 50 nM and 500 nM
# WEE1 = molecular target: T1, WEE1 (Homo sapiens, UniProt P30291+Q96SW2); experiment: Western blot degradation of WEE1 in hPBMCs (24 h)
# T1 construct: The supernatant was aspirated as the extracted total cell protein; endogenous in cells; host or cells: human peripheral blood mononuclear cells (hPBMCs)
# How it was run: (§1)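 Western blot densitometry after 24 h treatment of human PBMCs (1×10^6 cells/mL) with 50 nM or 500 nM compound. Remaining target (%) = band intensity over internal-control band, normalized to DMSO; degradation = 1 − remaining; DC50 is the concentration giving half the DMSO band signal.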
# IKZF1 = molecular target: T2, IKZF1 (Homo sapiens, UniProt Q13422+Q96SW2); experiment: Western blot degradation of IKZF1 in hPBMCs (24 h)
# T2 construct: The supernatant was aspirated as the extracted total cell protein; endogenous in cells; host or cells: human peripheral blood mononuclear cells (hPBMCs)
# How it was run: as §1
# IKZF2 = molecular target: T3, IKZF2 (Homo sapiens, UniProt Q96SW2+Q9UKS7); experiment: Western blot degradation of IKZF2 in hPBMCs (24 h)
# T3 construct: The supernatant was aspirated as the extracted total cell protein; endogenous in cells; host or cells: human peripheral blood mononuclear cells (hPBMCs)
# How it was run: as §1
# IKZF3 = molecular target: T4, IKZF3 (Homo sapiens, UniProt Q96SW2+Q9UKT9); experiment: Western blot degradation of IKZF3 in hPBMCs (24 h)
# T4 construct: The supernatant was aspirated as the extracted total cell protein; endogenous in cells; host or cells: human peripheral blood mononuclear cells (hPBMCs)
# How it was run: as §1
# CK1α = molecular target: T5, CK1α (Homo sapiens, UniProt P48729+Q96SW2); experiment: Western blot degradation of CK1α in hPBMCs (24 h)
# T5 construct: The supernatant was aspirated as the extracted total cell protein; endogenous in cells; host or cells: human peripheral blood mononuclear cells (hPBMCs)
# How it was run: as §1
# GSPT1 = molecular target: T6, GSPT1 (Homo sapiens, UniProt P15170+Q96SW2); experiment: Western blot degradation of GSPT1 in hPBMCs (24 h)
# T6 construct: The supernatant was aspirated as the extracted total cell protein; endogenous in cells; host or cells: human peripheral blood mononuclear cells (hPBMCs)
# How it was run: as §1
# T6 sequence (P15170 whole entry): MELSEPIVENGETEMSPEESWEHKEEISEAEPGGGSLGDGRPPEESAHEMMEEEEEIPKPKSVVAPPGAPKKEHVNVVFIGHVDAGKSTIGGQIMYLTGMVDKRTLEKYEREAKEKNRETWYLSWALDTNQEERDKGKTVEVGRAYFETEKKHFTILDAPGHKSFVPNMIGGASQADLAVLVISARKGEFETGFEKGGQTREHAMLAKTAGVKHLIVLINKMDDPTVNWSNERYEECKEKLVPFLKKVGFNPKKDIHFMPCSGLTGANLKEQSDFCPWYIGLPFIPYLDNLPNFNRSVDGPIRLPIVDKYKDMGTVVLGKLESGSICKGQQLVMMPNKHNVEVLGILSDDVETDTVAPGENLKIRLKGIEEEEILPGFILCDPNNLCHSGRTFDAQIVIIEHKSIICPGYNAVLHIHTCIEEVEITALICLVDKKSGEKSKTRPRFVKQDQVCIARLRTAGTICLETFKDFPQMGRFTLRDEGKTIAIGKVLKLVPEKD
# T6 sequence (Q96SW2 whole entry): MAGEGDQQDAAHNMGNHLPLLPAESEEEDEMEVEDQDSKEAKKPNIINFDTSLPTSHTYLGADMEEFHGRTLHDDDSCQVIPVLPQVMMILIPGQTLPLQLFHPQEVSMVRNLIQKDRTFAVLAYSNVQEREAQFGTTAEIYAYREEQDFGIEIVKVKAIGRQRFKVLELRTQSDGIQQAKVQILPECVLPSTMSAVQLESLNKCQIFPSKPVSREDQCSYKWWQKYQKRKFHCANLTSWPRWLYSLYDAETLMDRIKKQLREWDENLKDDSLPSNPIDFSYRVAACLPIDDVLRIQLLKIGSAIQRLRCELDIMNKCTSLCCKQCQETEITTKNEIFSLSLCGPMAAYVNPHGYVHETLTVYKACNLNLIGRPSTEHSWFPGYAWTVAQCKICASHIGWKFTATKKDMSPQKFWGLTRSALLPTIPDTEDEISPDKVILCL
# T6 sequence (Q16531 whole entry partner): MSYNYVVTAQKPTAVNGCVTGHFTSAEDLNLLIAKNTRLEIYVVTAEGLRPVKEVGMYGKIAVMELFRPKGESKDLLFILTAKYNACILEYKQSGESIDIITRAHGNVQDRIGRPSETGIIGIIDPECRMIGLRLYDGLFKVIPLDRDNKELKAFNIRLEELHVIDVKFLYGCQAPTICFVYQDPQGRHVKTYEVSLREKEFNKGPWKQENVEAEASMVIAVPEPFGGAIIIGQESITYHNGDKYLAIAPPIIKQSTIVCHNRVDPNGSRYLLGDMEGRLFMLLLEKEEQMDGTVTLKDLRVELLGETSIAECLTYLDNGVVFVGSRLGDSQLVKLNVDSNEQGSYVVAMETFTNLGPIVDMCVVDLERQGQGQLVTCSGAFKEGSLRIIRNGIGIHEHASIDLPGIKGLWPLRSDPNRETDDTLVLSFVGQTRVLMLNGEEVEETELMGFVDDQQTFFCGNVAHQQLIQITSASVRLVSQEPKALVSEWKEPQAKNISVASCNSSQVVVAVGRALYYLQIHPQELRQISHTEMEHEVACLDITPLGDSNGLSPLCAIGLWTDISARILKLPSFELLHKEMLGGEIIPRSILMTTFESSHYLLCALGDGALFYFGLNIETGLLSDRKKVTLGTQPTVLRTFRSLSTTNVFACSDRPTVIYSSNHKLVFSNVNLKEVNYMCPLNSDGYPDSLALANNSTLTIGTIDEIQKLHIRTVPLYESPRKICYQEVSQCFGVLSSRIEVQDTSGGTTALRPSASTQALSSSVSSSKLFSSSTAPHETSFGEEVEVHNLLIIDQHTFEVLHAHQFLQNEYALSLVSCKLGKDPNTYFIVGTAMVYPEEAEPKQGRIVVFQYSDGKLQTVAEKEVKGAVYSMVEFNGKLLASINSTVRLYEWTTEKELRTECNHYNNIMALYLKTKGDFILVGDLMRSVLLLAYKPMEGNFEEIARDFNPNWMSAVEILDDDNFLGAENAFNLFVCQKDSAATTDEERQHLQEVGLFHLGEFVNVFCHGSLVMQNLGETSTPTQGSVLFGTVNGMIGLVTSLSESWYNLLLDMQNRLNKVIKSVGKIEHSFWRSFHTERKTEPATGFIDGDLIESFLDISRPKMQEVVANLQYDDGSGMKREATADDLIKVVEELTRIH
# T4 sequence (Q9UKT9 whole entry): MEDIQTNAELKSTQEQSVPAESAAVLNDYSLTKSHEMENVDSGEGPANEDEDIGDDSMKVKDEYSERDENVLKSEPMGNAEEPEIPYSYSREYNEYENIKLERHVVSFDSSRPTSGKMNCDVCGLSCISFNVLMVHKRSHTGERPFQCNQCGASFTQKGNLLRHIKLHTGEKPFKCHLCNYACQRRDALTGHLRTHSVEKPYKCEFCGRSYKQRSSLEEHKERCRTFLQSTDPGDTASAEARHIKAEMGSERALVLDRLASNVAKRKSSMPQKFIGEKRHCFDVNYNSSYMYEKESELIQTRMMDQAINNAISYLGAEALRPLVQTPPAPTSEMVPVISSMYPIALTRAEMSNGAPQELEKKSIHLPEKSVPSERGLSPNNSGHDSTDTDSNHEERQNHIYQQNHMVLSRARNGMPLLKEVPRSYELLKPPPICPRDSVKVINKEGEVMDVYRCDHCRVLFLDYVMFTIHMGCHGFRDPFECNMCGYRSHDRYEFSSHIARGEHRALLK
# T4 sequence (Q96SW2 whole entry): as the sequence (Q96SW2 whole entry) above
# T4 sequence (Q16531 whole entry partner): as the sequence (Q16531 whole entry partner) above
# T3 sequence (Q9UKS7 whole entry): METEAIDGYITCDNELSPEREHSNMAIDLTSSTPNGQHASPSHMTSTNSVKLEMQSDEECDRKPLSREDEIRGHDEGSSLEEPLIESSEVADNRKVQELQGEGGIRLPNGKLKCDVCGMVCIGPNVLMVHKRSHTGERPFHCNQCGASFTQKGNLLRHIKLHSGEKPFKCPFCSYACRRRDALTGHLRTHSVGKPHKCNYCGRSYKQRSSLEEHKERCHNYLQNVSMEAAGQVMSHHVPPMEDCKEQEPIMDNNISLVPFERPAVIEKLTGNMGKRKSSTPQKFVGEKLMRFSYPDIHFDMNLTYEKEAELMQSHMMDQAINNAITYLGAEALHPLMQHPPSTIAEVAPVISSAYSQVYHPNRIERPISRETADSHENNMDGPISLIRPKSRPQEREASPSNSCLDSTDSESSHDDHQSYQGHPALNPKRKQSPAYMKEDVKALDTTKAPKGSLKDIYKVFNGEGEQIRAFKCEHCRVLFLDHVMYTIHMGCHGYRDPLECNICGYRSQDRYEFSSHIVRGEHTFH
# T3 sequence (Q96SW2 whole entry): as the sequence (Q96SW2 whole entry) above
# T3 sequence (Q16531 whole entry partner): as the sequence (Q16531 whole entry partner) above
# T2 sequence (Q13422 whole entry): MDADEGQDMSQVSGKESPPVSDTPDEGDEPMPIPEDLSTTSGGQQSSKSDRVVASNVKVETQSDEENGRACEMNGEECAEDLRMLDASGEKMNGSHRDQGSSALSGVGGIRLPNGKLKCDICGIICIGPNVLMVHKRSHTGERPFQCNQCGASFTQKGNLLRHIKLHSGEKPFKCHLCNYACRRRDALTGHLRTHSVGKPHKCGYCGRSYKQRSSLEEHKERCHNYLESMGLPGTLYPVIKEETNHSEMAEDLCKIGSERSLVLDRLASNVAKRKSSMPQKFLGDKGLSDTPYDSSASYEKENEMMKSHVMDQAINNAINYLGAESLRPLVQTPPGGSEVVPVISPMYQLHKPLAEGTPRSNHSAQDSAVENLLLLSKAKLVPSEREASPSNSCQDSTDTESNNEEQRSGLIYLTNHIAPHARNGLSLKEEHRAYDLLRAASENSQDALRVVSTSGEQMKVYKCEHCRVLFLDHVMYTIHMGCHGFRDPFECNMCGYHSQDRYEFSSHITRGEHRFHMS
# T2 sequence (Q96SW2 whole entry): as the sequence (Q96SW2 whole entry) above
# T2 sequence (Q16531 whole entry partner): as the sequence (Q16531 whole entry partner) above
# T5 sequence (P48729 whole entry): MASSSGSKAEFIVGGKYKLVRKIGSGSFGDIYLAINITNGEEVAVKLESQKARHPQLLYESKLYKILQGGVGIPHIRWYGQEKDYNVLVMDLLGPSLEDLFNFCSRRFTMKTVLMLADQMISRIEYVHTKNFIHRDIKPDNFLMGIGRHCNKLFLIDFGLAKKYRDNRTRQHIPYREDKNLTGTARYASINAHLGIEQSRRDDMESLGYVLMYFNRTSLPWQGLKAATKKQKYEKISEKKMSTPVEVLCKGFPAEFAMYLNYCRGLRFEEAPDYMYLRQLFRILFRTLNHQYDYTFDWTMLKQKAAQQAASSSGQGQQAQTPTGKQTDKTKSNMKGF
# T5 sequence (Q96SW2 whole entry): as the sequence (Q96SW2 whole entry) above
# T5 sequence (Q16531 whole entry partner): as the sequence (Q16531 whole entry partner) above
Structure (SMILES),WEE1 substrate protein remaining % (WEE1),IKZF1 substrate protein remaining % (IKZF1),IKZF2 substrate protein remaining % (IKZF2),IKZF3 substrate protein remaining % (IKZF3),CK1α substrate protein remaining % (CK1α),GSPT1 substrate protein remaining % (GSPT1)
"Cc1nc(N2CCN(Cc3ccc4c(c3)CN(N3CCC(=O)NC3=O)C4=O)CC2)c2c3c(sc2n1)CCC3 [GT-08080, 1-(5-((4-(2-methyl-6,7-dihydro-5H-cyclopenta[4,5]thieno[2,3-d]pyrimidin-4-yl)piperazin-1-yl)methyl)-1-oxoisoindolin-2-yl)dihydropyrimidine-2,4(1H,3H)-dione]",A (0% ≤ substrate protein remaining % ≤80%),B (80%< substrate protein remaining % ≤100%),B (80%< substrate protein remaining % ≤100%),B (80%< substrate protein remaining % ≤100%),A (0% ≤ substrate protein remaining % ≤80%),A (0% ≤ substrate protein remaining % ≤80%)
"O=C1CCN(N2Cc3cc(CN4CCN(c5ncc6ccsc6n5)CC4)ccc3C2=O)C(=O)N1 [GT-08081, 1-(1-oxo-5-((4-(thieno[2,3-d]pyrimidin-2-yl)piperazin-1-yl)methyl)isoindolin-2-yl)dihydropyrimidine-2,4(1H,3H)-dione]",A (0% ≤ substrate protein remaining % ≤80%),B (80%< substrate protein remaining % ≤100%),B (80%< substrate protein remaining % ≤100%),B (80%< substrate protein remaining % ≤100%),A (0% ≤ substrate protein remaining % ≤80%),A (0% ≤ substrate protein remaining % ≤80%)
"O=C1CCN(N2Cc3cc(CN4CCC(c5ncnc6sccc56)CC4)ccc3C2=O)C(=O)N1 [GT-08082, 1-(1-oxo-5-((4-(thieno[2,3-d]pyrimidin-4-yl)piperidin-1-yl)methyl)isoindolin-2-yl)dihydropyrimidine-2,4(1H,3H)-dione]",A (0% ≤ substrate protein remaining % ≤80%),B (80%< substrate protein remaining % ≤100%),B (80%< substrate protein remaining % ≤100%),B (80%< substrate protein remaining % ≤100%),A (0% ≤ substrate protein remaining % ≤80%),A (0% ≤ substrate protein remaining % ≤80%)
"Cc1cc2c(C3CCN(Cc4ccc5c(c4)CN(N4CCC(=O)NC4=O)C5=O)CC3)ncnc2s1 [GT-08083, 1-(5-((4-(6-methylthieno[2,3-d]pyrimidin-4-yl)piperidin-1-yl)methyl)-1-oxoisoindolin-2-yl)dihydropyrimidine-2,4(1H,3H)-dione]",B (80%< substrate protein remaining % ≤100%),B (80%< substrate protein remaining % ≤100%),B (80%< substrate protein remaining % ≤100%),B (80%< substrate protein remaining % ≤100%),A (0% ≤ substrate protein remaining % ≤80%),A (0% ≤ substrate protein remaining % ≤80%)
"Cc1sc2ncnc(C3CCN(Cc4ccc5c(c4)CN(N4CCC(=O)NC4=O)C5=O)CC3)c2c1C [GT-08084, 1-(5-((4-(5,6-dimethylthieno[2,3-d]pyrimidin-4-yl)piperidin-1-yl)methyl)-1-oxoisoindolin-2-yl)dihydropyrimidine-2,4(1H,3H)-dione]",B (80%< substrate protein remaining % ≤100%),B (80%< substrate protein remaining % ≤100%),B (80%< substrate protein remaining % ≤100%),B (80%< substrate protein remaining % ≤100%),A (0% ≤ substrate protein remaining % ≤80%),A (0% ≤ substrate protein remaining % ≤80%)
